Test results: US20240316047A1, “INHIBITORS OF RNA HELICASE DHX9 AND USES THEREOF” (ACCENT THERAPEUTICS, INC., priority 2022, published 2024)
Where two headings read alike, the source gives them in different places.

Columns and labels:
[1] = molecular target: Human recombinant DHX9 protein (Homo sapiens (Human), UniProt Q08211); assay: DHX9 ATPase assay (ADP-Glo); assay type: biochemical; details: for IC50: read-out: DHX9 Biochemical Inflection Point
[2] = tested on: circBRIP1 in HCT116 cells; assay: DHX9 circBRIP1 cellular target engagement SYBR Green assay; assay type: cell-based; details: SyBr assay (^+); read-out: DHX9 Cellular Target Engagement
[3] = tested on: LS411N cells; assay: DHX9 cellular proliferation assay (CellTiter-Glo), LS411N (CRC-MSI); assay type: cell-based; details: performed at Pharmaron, read-out: LS411N (CRC-MSI-H) Antiproliferative
[4] = tested on: NCI-H747 cells; assay: DHX9 cellular proliferation assay (CellTiter-Glo), NCI-H747 (CRC-MSS); assay type: cell-based; details: read-out: H747 (CRC-MSS) Antiproliferative
[5] = tested on: circBRIP1 in HCT116 cells; assay: DHX9 circBRIP1 cellular target engagement TaqMan multiplex assay; assay type: cell-based; details: read-out: DHX9 Cellular Target Engagement

Sequence of Human recombinant DHX9 protein (Q08211 whole entry): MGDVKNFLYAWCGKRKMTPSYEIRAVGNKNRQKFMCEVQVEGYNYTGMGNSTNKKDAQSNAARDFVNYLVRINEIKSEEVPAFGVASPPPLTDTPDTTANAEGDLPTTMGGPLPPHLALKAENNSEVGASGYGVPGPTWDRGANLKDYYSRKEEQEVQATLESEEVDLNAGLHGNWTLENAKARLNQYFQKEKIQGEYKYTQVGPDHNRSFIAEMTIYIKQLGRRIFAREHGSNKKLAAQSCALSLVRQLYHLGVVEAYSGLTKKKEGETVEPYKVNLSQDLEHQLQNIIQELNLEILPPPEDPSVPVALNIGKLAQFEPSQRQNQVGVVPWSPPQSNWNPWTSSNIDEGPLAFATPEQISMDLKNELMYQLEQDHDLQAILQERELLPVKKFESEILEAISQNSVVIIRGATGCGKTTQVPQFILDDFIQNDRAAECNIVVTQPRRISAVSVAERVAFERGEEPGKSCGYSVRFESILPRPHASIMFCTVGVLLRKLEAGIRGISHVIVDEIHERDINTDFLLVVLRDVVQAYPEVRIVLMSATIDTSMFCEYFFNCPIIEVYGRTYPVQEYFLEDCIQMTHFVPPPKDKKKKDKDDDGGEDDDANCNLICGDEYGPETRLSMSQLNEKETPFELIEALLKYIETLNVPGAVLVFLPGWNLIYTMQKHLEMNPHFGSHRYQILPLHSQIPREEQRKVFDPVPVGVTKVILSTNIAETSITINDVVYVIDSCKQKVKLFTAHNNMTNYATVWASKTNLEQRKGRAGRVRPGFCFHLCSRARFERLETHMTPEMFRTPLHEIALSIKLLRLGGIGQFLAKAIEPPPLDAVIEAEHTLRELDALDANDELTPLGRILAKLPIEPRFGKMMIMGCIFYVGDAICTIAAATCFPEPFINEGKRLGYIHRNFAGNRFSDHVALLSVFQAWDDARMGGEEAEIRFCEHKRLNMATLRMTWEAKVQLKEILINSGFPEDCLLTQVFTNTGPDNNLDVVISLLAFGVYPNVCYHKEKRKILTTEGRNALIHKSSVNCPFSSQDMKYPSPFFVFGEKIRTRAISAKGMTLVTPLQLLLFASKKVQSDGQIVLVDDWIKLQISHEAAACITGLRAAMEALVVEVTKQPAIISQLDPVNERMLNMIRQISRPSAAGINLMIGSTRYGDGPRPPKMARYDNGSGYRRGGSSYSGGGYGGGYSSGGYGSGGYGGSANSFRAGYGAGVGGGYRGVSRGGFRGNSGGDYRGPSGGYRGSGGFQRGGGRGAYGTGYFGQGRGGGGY

| DHX9 Biochemical Max Inhibition [1] | IC50 [1] | EC50 [2] | IC50 ([4]; performed at Pharmaron) | EC50 ([5]; Taqman assay (*)) | EC50 ([5]; Homo sapiens, HCT-116, Taqman assay (*)) | IC50 ([4]; Homo sapiens, NCI-H747, performed at Pharmaron) | Compound | IC50 [3] | IC50 ([3]; Homo sapiens, LS-411N) |
| --- | --- | --- | --- | --- | --- | --- | --- | --- | --- |
| 71.2 | 4.1 nM | 23.2 nM | > 10000 nM | – | – | – | Cc1cc(C(=O)Nc2cc(Cl)cc(NS(C)(=O)=O)c2)cn1-c1ccc(N(C)C2CCOC2)cn1 (stereo not drawn) [Example 675] | 121 nM | – |
| 68 | 46.8 nM | – | 2520 nM | 24.2 nM | – | – | Cc1sc(C(=O)Nc2cc(Cl)cc(NS(C)(=O)=O)c2)cc1-c1ncc(N2CC(C(F)(F)F)C2)cc1F [Example 477] | 80.2 nM | – |
| 64.4 | 31.2 nM | – | – | – | 59.3 nM | 4880 nM | Cc1sc(C(=O)Nc2cc(Cl)cc(NS(C)(=O)=O)c2)cc1-c1ncccc1OC(C)c1cncc(F)c1 (single isomer, unassigned) [Example 631] | – | 156 nM |
